Measured values as given in patent EP0500802B1, “LIPOSOMAL COMPOSITIONS” (priority 1989, dated 1991).

Assay: Ocular biodistribution of 14C-labelled cromolyn free drug after topical ocular instillation (liquid scintillation counting of tissues)
Type: in vivo, New Zealand white rabbits
Settings: for TISSUE CONCENTRATION WEIGHTED MEAN: Examples 1-3
Protocol: A. Preparation of test article. The sodium cromoglycate free drug test article used in the ocular biodistribution studies (Examples 1, 2 and 3) was prepared according to the following formula: […]
B. The [propane-2-¹⁴C]cromolyn sodium used in the biodistribution studies was prepared as follows: 1,3-dichloro[2-¹⁴C]propan-2-ol was reacted with 2,6-dihydroxyacetophenone to give 1,3-bis (2-acetyl-3-hydroxy phenoxy)-2-hydroxy[2-¹⁴C]propane. This was treated with base and diethyl oxalate followed by acid catalysed cyclisation to give diethyl [propane-2-¹⁴C]cromolyn. Hydrolysis with sodium hydroxide gave the final product which was purified by crystallisation from water acetone. C. Specification and Handling of Experimental Animals and Tissues. • 1. Description of Experimental Animals: Female, New Zealand white rabbits (Hare Marland) weighing 2-3 kg were used in these studies. Upon receipt each animal was assigned an identification number and examined for gross signs of general health. The animals were individually housed in standard rabbit cages and given access to food and water ad libitum. Animals were received approximately one week before initiation of the study. Prior to the study the animals were randomly assigned to treatment groups using either a random number table or generator. Immediately before treatment the ocular tissues were examined for signs of irritation. If irritation was observed, either another animal was substituted or the condition noted. Food was removed at the time of treatment Water was available ad libitum throughout. • 2. Topical Ocular Instillation of Test Article: Animals were treated unilaterally by topical ocular instillation using a positive displacement pipet. The eyelids were gently retracted and the dose applied onto the cornea taking care to avoid touching the tissue with the pipet tip. The animal was positioned such that the dose flowed into the lower cul-de-sac. After treatment the animals were returned to their cages. • 3. Collection of Plasma Sample: Immediately prior to euthanasia, animals were placed in a standard rabbit restrainer. A small amount of xylene was applied to an eartip to enhance blood flow. The lateral ear vein was lanced and approximately 500 ul of blood collected in a Microtainer Brand Tube with EDTA (Becton Dickinson). The tubes were mixed by inversion and centrifuged in a microfuge for 10 minutes. A 200 ul aliquot of plasma was transferred to a scintillation vial for further processing of the sample. • 4. Euthanasia: Animals were euthanized by intravenous injection of a lethal dose of T61 Euthanasia Fluid (Hoechst-Roussel) into a lateral ear vein. Death was verified by absence of respiration, heart beat, and ocular reflexes. • 5. Dissection of Ocular Tissues. • a. Removal of Aqueous Humor: Aqueous humor was removed using a 1 ml disposable, plastic syringe equipped with a 5/8"-27g needle. The needle was inserted into the anterior chamber at the limbus. The fluid was gently withdrawn and transferred to a preweighed scintillation vial. • b. Removal of Globe, Conjunctiva, and Nictitating Membrane: The eyelids were retracted using 6" curbed hemostats. Incisions were made at the corners of the eye to facilitate dissection of the conjunctiva. The palpebral conjunctiva and nictitating membrane were dissected free of the eyelids, muscle, and connective tissue using Wilmer-Converse conjunctiva scissors. The conjunctiva and nictitating membrane were grasped with straight Kirby tissue forceps to form a sack around the globe. The sack and its contents were removed from the socket as a unit using heavy curved nucleation scissors. Excess blood was removed from the outside of the sac by gentle blotting with gauze pads. • c. Dissection of Conjunctiva, and Nictitating Membrane: The nictitating membrane was grasped with straight Kirby tissue forceps. The conjunctiva was cut with heavy curved eye scissors along one edge of the nictitating membrane. […]

SMILES: O=C(O)c1cc(=O)c2c(OCC(O)COc3cccc4oc(C(=O)O)cc(=O)c34)cccc2o1 [CROMOLYN FREE DRUG, 5,5' -[(2-Hydroxy-1,3-propanediyl)bis-(oxy)]bis[4-oxo-4H-1-benzopyran-2-carboxylic acid]]
- TISSUE CONCENTRATION MEAN (AQUEOUS HUMOR, Rx eye, 2 HR, EXAMPLE 1): 70 ng Cromolyn/g or ml Tissue
- TISSUE CONCENTRATION MEAN (AQUEOUS HUMOR, Rx eye, 2 HR, EXAMPLE 2): 36 ng Cromolyn/g or ml Tissue
- TISSUE CONCENTRATION MEAN (AQUEOUS HUMOR, Rx eye, 2 HR, EXAMPLE 3): 129 ng Cromolyn/g or ml Tissue
- TISSUE CONCENTRATION WEIGHTED MEAN (AQUEOUS HUMOR, Rx eye, 2 HR): 39 ng Cromolyn/g or ml Tissue
- TISSUE CONCENTRATION MEAN (AQUEOUS HUMOR, Rx eye, 4 HR, EXAMPLE 1): 37 ng Cromolyn/g or ml Tissue
- TISSUE CONCENTRATION MEAN (AQUEOUS HUMOR, Rx eye, 4 HR, EXAMPLE 2): 29 ng Cromolyn/g or ml Tissue
- TISSUE CONCENTRATION MEAN (AQUEOUS HUMOR, Rx eye, 4 HR, EXAMPLE 3): 68 ng Cromolyn/g or ml Tissue
- TISSUE CONCENTRATION WEIGHTED MEAN (AQUEOUS HUMOR, Rx eye, 4 HR): 35 ng Cromolyn/g or ml Tissue
- TISSUE CONCENTRATION MEAN (AQUEOUS HUMOR, Rx eye, 8 HR, EXAMPLE 1): 16 ng Cromolyn/g or ml Tissue
- TISSUE CONCENTRATION MEAN (AQUEOUS HUMOR, Rx eye, 8 HR, EXAMPLE 2): 13 ng Cromolyn/g or ml Tissue
- TISSUE CONCENTRATION MEAN (AQUEOUS HUMOR, Rx eye, 8 HR, EXAMPLE 3): 10 ng Cromolyn/g or ml Tissue
- TISSUE CONCENTRATION WEIGHTED MEAN (AQUEOUS HUMOR, Rx eye, 8 HR): 13 ng Cromolyn/g or ml Tissue
- TISSUE CONCENTRATION MEAN (CONJUNCTIVA, Rx eye, 2 HR, EXAMPLE 1): 3501 ng Cromolyn/g or ml Tissue
- TISSUE CONCENTRATION MEAN (CONJUNCTIVA, Rx eye, 2 HR, EXAMPLE 2): 3316 ng Cromolyn/g or ml Tissue
- TISSUE CONCENTRATION MEAN (CONJUNCTIVA, Rx eye, 2 HR, EXAMPLE 3): 2332 ng Cromolyn/g or ml Tissue
- TISSUE CONCENTRATION WEIGHTED MEAN (CONJUNCTIVA, Rx eye, 2 HR): 2887 ng Cromolyn/g or ml Tissue
- TISSUE CONCENTRATION MEAN (CONJUNCTIVA, Rx eye, 4 HR, EXAMPLE 1): 742 ng Cromolyn/g or ml Tissue
- TISSUE CONCENTRATION MEAN (CONJUNCTIVA, Rx eye, 4 HR, EXAMPLE 2): 683 ng Cromolyn/g or ml Tissue
- TISSUE CONCENTRATION MEAN (CONJUNCTIVA, Rx eye, 4 HR, EXAMPLE 3): 772 ng Cromolyn/g or ml Tissue
- TISSUE CONCENTRATION WEIGHTED MEAN (CONJUNCTIVA, Rx eye, 4 HR): 716 ng Cromolyn/g or ml Tissue
- TISSUE CONCENTRATION MEAN (CONJUNCTIVA, Rx eye, 8 HR, EXAMPLE 1): 687 ng Cromolyn/g or ml Tissue
- TISSUE CONCENTRATION MEAN (CONJUNCTIVA, Rx eye, 8 HR, EXAMPLE 2): 578 ng Cromolyn/g or ml Tissue
- TISSUE CONCENTRATION MEAN (CONJUNCTIVA, Rx eye, 8 HR, EXAMPLE 3): 614 ng Cromolyn/g or ml Tissue
- TISSUE CONCENTRATION WEIGHTED MEAN (CONJUNCTIVA, Rx eye, 8 HR): 607 ng Cromolyn/g or ml Tissue
- TISSUE CONCENTRATION MEAN (CORNES, Rx eye, 2 HR, EXAMPLE 1): 1005 ng Cromolyn/g or ml Tissue
- TISSUE CONCENTRATION MEAN (CORNES, Rx eye, 2 HR, EXAMPLE 2): 478 ng Cromolyn/g or ml Tissue
- TISSUE CONCENTRATION MEAN (CORNES, Rx eye, 2 HR, EXAMPLE 3): 683 ng Cromolyn/g or ml Tissue
- TISSUE CONCENTRATION WEIGHTED MEAN (CORNES, Rx eye, 2 HR): 519 ng Cromolyn/g or ml Tissue
- TISSUE CONCENTRATION MEAN (CORNES, Rx eye, 4 HR, EXAMPLE 1): 487 ng Cromolyn/g or ml Tissue
- TISSUE CONCENTRATION MEAN (CORNES, Rx eye, 4 HR, EXAMPLE 2): 298 ng Cromolyn/g or ml Tissue
- TISSUE CONCENTRATION MEAN (CORNES, Rx eye, 4 HR, EXAMPLE 3): 381 ng Cromolyn/g or ml Tissue
- TISSUE CONCENTRATION WEIGHTED MEAN (CORNES, Rx eye, 4 HR): 337 ng Cromolyn/g or ml Tissue
- TISSUE CONCENTRATION MEAN (CORNES, Rx eye, 8 HR, EXAMPLE 1): 160 ng Cromolyn/g or ml Tissue
- TISSUE CONCENTRATION MEAN (CORNES, Rx eye, 8 HR, EXAMPLE 2): 165 ng Cromolyn/g or ml Tissue
- TISSUE CONCENTRATION MEAN (CORNES, Rx eye, 8 HR, EXAMPLE 3): 127 ng Cromolyn/g or ml Tissue
- TISSUE CONCENTRATION WEIGHTED MEAN (CORNES, Rx eye, 8 HR): 162 ng Cromolyn/g or ml Tissue
- TISSUE CONCENTRATION MEAN (IRIS-CILIARY BODY, Rx eye, 2 HR, EXAMPLE 3): 56 ng Cromolyn/g or ml Tissue
- TISSUE CONCENTRATION MEAN (IRIS-CILIARY BODY, Rx eye, 4 HR, EXAMPLE 3): 29 ng Cromolyn/g or ml Tissue
- TISSUE CONCENTRATION MEAN (NICTITATING MEMBRANE, Rx eye, 2 HR, EXAMPLE 1): 2136 ng Cromolyn/g or ml Tissue
- TISSUE CONCENTRATION MEAN (NICTITATING MEMBRANE, Rx eye, 2 HR, EXAMPLE 2): 2438 ng Cromolyn/g or ml Tissue
- TISSUE CONCENTRATION MEAN (NICTITATING MEMBRANE, Rx eye, 2 HR, EXAMPLE 3): 2618 ng Cromolyn/g or ml Tissue
- TISSUE CONCENTRATION WEIGHTED MEAN (NICTITATING MEMBRANE, Rx eye, 2 HR): 2319 ng Cromolyn/g or ml Tissue
- TISSUE CONCENTRATION MEAN (NICTITATING MEMBRANE, Rx eye, 4 HR, EXAMPLE 1): 480 ng Cromolyn/g or ml Tissue
- TISSUE CONCENTRATION MEAN (NICTITATING MEMBRANE, Rx eye, 4 HR, EXAMPLE 2): 484 ng Cromolyn/g or ml Tissue
- TISSUE CONCENTRATION MEAN (NICTITATING MEMBRANE, Rx eye, 4 HR, EXAMPLE 3): 576 ng Cromolyn/g or ml Tissue
- TISSUE CONCENTRATION WEIGHTED MEAN (NICTITATING MEMBRANE, Rx eye, 4 HR): 494 ng Cromolyn/g or ml Tissue
- TISSUE CONCENTRATION MEAN (NICTITATING MEMBRANE, Rx eye, 8 HR, EXAMPLE 1): 348 ng Cromolyn/g or ml Tissue
- TISSUE CONCENTRATION MEAN (NICTITATING MEMBRANE, Rx eye, 8 HR, EXAMPLE 2): 350 ng Cromolyn/g or ml Tissue
- TISSUE CONCENTRATION MEAN (NICTITATING MEMBRANE, Rx eye, 8 HR, EXAMPLE 3): 462 ng Cromolyn/g or ml Tissue
- TISSUE CONCENTRATION WEIGHTED MEAN (NICTITATING MEMBRANE, Rx eye, 8 HR): 383 ng Cromolyn/g or ml Tissue
- TISSUE CONCENTRATION MEAN (PLASMA, 2 HR, EXAMPLE 3): 1 ng Cromolyn/g or ml Tissue
- Cromolyn levels in the aqueous humor of the untreated eye (any time point (2, 4, 8 hours), Example 1 results text): no detectable
